The values below come from ChEMBL document CHEMBL1201862, “PubChem BioAssay data set” (2004).

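The compound was tested at five concentrations on cells cultured in 96-well plates, with a 48-hour exposure period. Abbreviation: GI50, concentration required for 50% inhibition of growth.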 Calls of active or inactive are those of the source. Cut-off read from the data, not from the text of the source: active = GI50 up to about 1.1 µM and inactive = higher. Some results are limits rather than exact numbers.

Among the test systems are HOP-62; NCI/ADR-RES; A549; UACC-62; Hs-578T; SN12C; OVCAR-5; MDA-MB-231; NCI-H522; CCRF-CEM; MDA-N; LOX IMVI; SF-295; SF-268; HCT-116; K562; 786-0; COLO 205; SK-MEL-2; T47D.
Holding throughout (assay): NCI-60 cell line screen, 48 h

In the case of `O=C(N/N=C\c1cccc2c([N+](=O)[O-])cccc12)Nc1ccccc1`, the GI50 is 16.2 µM (inactive) in the assay with HOP-62; 12.4 µM (inactive) with NCI/ADR-RES; 10.3 µM (inactive) in the assay with A549; 10.4 µM (inactive) in the assay with UACC-62; 13.2 µM (inactive) in the assay with Hs-578T; 4.59 µM (inactive) in the assay with SN12C. In addition, the GI50 in the assay on OVCAR-5 is 15.1 µM (inactive); with MDA-MB-231, 17.8 µM (inactive); in the assay with NCI-H522, 14.6 µM (inactive); with CCRF-CEM, 10.5 µM (inactive); with MDA-N, 13.1 µM (inactive); in the assay on LOX IMVI, 7.74 µM (inactive). Moreover, the GI50 in the assay with SF-295 was 13.9 µM (inactive); in the assay on SF-268, 21.6 µM (inactive); in the assay on HCT-116, 5.37 µM (inactive); with K562, 5.85 µM (inactive); with 786-0 it was 16.6 µM (inactive); with COLO 205, 18.5 µM (inactive). For the same compound, the GI50 in the assay with SK-MEL-2 was 2.27 µM (inactive); in the assay with T47D, 6.04 µM (inactive).
Consider `COC(=O)[C@@H](NC(=O)N(CCC#N)CCCN(C(=O)N[C@H](Cc1ccccc1)C(=O)OC)c1ccccc1)C(C)C`, for which the GI50 in the assay with HOP-62 is > 100 µM (inactive); with NCI/ADR-RES it was > 100 µM (inactive); in the assay on A549, > 100 µM (inactive); in the assay with UACC-62, 33.3 µM (inactive); in the assay with Hs-578T, > 100 µM (inactive); in the assay on SN12C, > 100 µM (inactive). In addition, the GI50 with OVCAR-5 was > 100 µM (inactive); in the assay with MDA-MB-231, > 100 µM (inactive); in the assay on NCI-H522, 40.4 µM (inactive); with CCRF-CEM, 85.1 µM (inactive); in the assay with MDA-N, 95.3 µM (inactive); in the assay on LOX IMVI, 97.3 µM (inactive). Besides, the GI50 is > 100 µM (inactive) in the assay on SF-295; 84.1 µM (inactive) with SF-268; > 100 µM (inactive) with HCT-116; > 100 µM (inactive) in the assay with 786-0; > 100 µM (inactive) in the assay on COLO 205; 40.6 µM (inactive) in the assay on SK-MEL-2. Further, the GI50 in the assay with T47D is 36.8 µM (inactive).
Regarding `C/C(=N\NC(=S)NCCCCNC(=S)N/N=C(\C)c1ccccn1)c1ccccc1`, the GI50 was 0.745 µM (active) in the assay on HOP-62; 0.914 µM (active) in the assay with NCI/ADR-RES; 1.66 µM (inactive) in the assay on A549; 1.12 µM (active) in the assay on UACC-62; > 23.6 µM (inactive) in the assay with Hs-578T; 0.859 µM (active) in the assay with SN12C. The GI50 in the assay with OVCAR-5 was 1.98 µM (inactive); in the assay on MDA-MB-231, 5.09 µM (inactive); in the assay on NCI-H522, 1.15 µM (inactive); in the assay with CCRF-CEM it was 0.391 µM (active); in the assay on MDA-N it was 2.25 µM (inactive); with LOX IMVI it was 0.845 µM (active). Further, the GI50 with SF-295 was 0.982 µM (active); in the assay on SF-268, 0.394 µM (active); in the assay on HCT-116 it was 0.331 µM (active); with K562, 2.25 µM (inactive); with 786-0 it was 6.18 µM (inactive); in the assay with COLO 205, 0.832 µM (active). Besides, the GI50 with SK-MEL-2 is 6.71 µM (inactive); in the assay with T47D, 0.351 µM (active).
On to `COc1cnnc2c(C)c(-c3ccccc3)nn12`, for which the GI50 is > 69.3 µM (inactive) in the assay on HOP-62; > 100 µM (inactive) with NCI/ADR-RES; > 95.9 µM (inactive) in the assay with A549; 42.4 µM (inactive) with UACC-62; > 66.1 µM (inactive) with Hs-578T; 30.1 µM (inactive) in the assay on SN12C. In addition, the GI50 in the assay with OVCAR-5 is > 100 µM (inactive); in the assay with MDA-MB-231, > 61.9 µM (inactive); in the assay on NCI-H522, > 93.5 µM (inactive); with CCRF-CEM, > 73.1 µM (inactive); in the assay on MDA-N, 60.5 µM (inactive); with LOX IMVI, > 100 µM (inactive). Besides, the GI50 is > 78.7 µM (inactive) in the assay on SF-295; 82.4 µM (inactive) in the assay on SF-268; 77.1 µM (inactive) in the assay with HCT-116; > 100 µM (inactive) in the assay with K562; > 84.9 µM (inactive) in the assay with 786-0; > 100 µM (inactive) with COLO 205. Also, the GI50 in the assay with SK-MEL-2 was 40.4 µM (inactive); in the assay on T47D, 2.6 µM (inactive).
